Measured values published in ChEMBL document CHEMBL5244230, “Artemisinin-derived hybrids and their anticancer activity” (Eur J Med Chem, 2020).
Where “and” joins values, the source holds several entries; their conditions need not be identical. Equal values may be shown once.

Key:
[1] = Cytotoxicity against human HCEC cells; assay type: toxicity, cell-based
HepG2 [2] = assay: Antiproliferative activity against human HepG2 cells assessed as reduction in cell viability; assay type: functional, cell-based
Hep 3B2 = assay: Antiproliferative activity against human Hep3B cells assessed as reduction in cell viability; assay type: functional, cell-based
A2780 = assay: Antiproliferative activity against human A2780 cells assessed as reduction in cell viability; assay type: functional, cell-based
OVCAR-3 = assay: Antiproliferative activity against human OVCAR-3 cells assessed as reduction in cell viability; assay type: functional, cell-based
MV4-11 = assay: Antiproliferative activity against human MV4-11 cells; assay type: functional, cell-based
A549 = assay: Antiproliferative activity against human A549 cells; assay type: functional, cell-based
HCT-116 [3] = assay: Antiproliferative activity against human HCT-116 cells; assay type: functional, cell-based
MCF7 [4] = assay: Anticancer activity against human MCF7 cells; assay type: functional, cell-based
MCF7 [5] = assay: Anticancer activity against human MCF7 cells assessed as inhibition of cell growth; assay type: functional, cell-based
[6] = Anticancer activity against human Lu1 cells; assay type: functional, cell-based
HL-60 = assay: Anticancer activity against human HL-60 cells; assay type: functional, cell-based
P388 = assay: Anticancer activity against mouse P388 cells; assay type: functional, cell-based
HCT-116 [7] = assay: Antiproliferative activity against human HCT-116 cells assessed as reduction in cell viability; assay type: functional, cell-based; conditions: Homo sapiens, HCT-116
HeLa = assay: Antiproliferative activity against human HeLa cells assessed as reduction in cell viability; assay type: functional, cell-based
KB = assay: Antiproliferative activity against human KB cells; assay type: functional, cell-based
HepG2 [8] = assay: Antiproliferative activity against human HepG2 cells; assay type: functional, cell-based

## C[C@H]1[C@H](Sc2ccccc2)O[C@@H]2O[C@@]3(C)CC[C@H]4[C@H](C)CC[C@@H]1[C@@]24OO3
[1]
  IC50: 930 nM

## CCN(CC)c1ccc2cc(C(=O)N3CCN(CCC[C@H]4O[C@@H]5O[C@@]6(C)CC[C@H]7[C@H](C)CC[C@@H]([C@H]4C)[C@@]57OO6)CC3)c(=O)oc2c1
HepG2 [2]; Homo sapiens, HepG2
  IC50: 2330 nM
Hep 3B2
  IC50: 2330 nM
A2780
  IC50: 2330 nM
OVCAR-3
  IC50: 2330 nM

## CCN(CC)c1ccc2cc(C(=O)N3CCN(C(=O)CN4CCN(CCC[C@H]5O[C@@H]6O[C@@]7(C)CC[C@H]8[C@H](C)CC[C@@H]([C@H]5C)[C@@]68OO7)CC4)CC3)c(=O)oc2c1
HepG2 [2]; hepg2
  IC50: 2330 nM and 6280 nM
Hep 3B2
  IC50: 2330 nM
A2780
  IC50: 2330 nM
OVCAR-3
  IC50: 2330 nM

## C[C@H]1[C@@H](OC(=O)CCC(=O)NCCCNc2c3c4ccccc4nc-3n(C)c3ccccc23)O[C@@H]2O[C@@]3(C)CC[C@H]4[C@H](C)CC[C@@H]1[C@@]24OO3
MV4-11
  IC50: 72 nM
A549
  IC50: 72 nM
HCT-116 [3]
  IC50: 72 nM

## C[C@H]1[C@@H](Sc2ccccc2)O[C@@H]2O[C@@]3(C)CC[C@H]4[C@H](C)CC[C@@H]1[C@@]24OO3
[1]
  IC50: 5240 nM

## C[C@H]1[C@@H](OC(=O)CCC(=O)NCC(C)(C)CNc2c3c4ccccc4nc-3n(C)c3ccc(Cl)cc23)O[C@@H]2O[C@@]3(C)CC[C@H]4[C@H](C)CC[C@@H]1[C@@]24OO3
MV4-11
  IC50: 72 nM
A549
  IC50: 72 nM
HCT-116 [3]
  IC50: 72 nM

## COC(=O)c1ccc2c(c1)c(NCCCNC(=O)CCC(=O)O[C@H]1O[C@@H]3O[C@@]4(C)CC[C@H]5[C@H](C)CC[C@@H]([C@H]1C)[C@@]35OO4)c1c3ccccc3nc-1n2C
MV4-11
  IC50: 72 nM
A549
  IC50: 72 nM
HCT-116 [3]
  IC50: 72 nM

## C[C@H]1[C@@H](OCCc2cn(-c3cccc(C(=O)N4CCCCC4)c3)nn2)O[C@@H]2O[C@@]3(C)CC[C@H]4[C@H](C)CC[C@@H]1[C@@]24OO3
MCF7 [4]
  IC50: 5700 nM
MCF7 [5]
  IC50: 5700 nM
[6]
  IC50: 5700 nM
HL-60
  IC50: 5700 nM
P388
  IC50: 5700 nM

## C[C@H]1[C@@H](CCCOP(=O)(O)Oc2ccccc2)O[C@@H]2O[C@@]3(C)CC[C@H]4[C@H](C)CC[C@@H]1[C@@]24OO3
HCT-116 [7]
  IC50: 3820 nM
HeLa
  IC50: 3820 nM

## COC(=O)c1ccc2c(c1)c(NCC(C)(C)CNC(=O)CCC(=O)O[C@H]1O[C@@H]3O[C@@]4(C)CC[C@H]5[C@H](C)CC[C@@H]([C@H]1C)[C@@]35OO4)c1c3ccccc3nc-1n2C
MV4-11
  IC50: 72 nM
A549
  IC50: 72 nM
HCT-116 [3]
  IC50: 72 nM

## C[C@H]1[C@@H](OC(=O)CCC(=O)NCC(C)(C)CNc2c3c4ccccc4nc-3n(C)c3ccc(Br)cc23)O[C@@H]2O[C@@]3(C)CC[C@H]4[C@H](C)CC[C@@H]1[C@@]24OO3
MV4-11
  IC50: 72 nM
A549
  IC50: 72 nM
HCT-116 [3]
  IC50: 72 nM

## C[C@H]1[C@@H](CCCOP(=O)(Oc2ccccc2)Oc2ccccc2)O[C@@H]2O[C@@]3(C)CC[C@H]4[C@H](C)CC[C@@H]1[C@@]24OO3
HCT-116 [7]
  IC50: 3820 nM
HeLa
  IC50: 3820 nM

## C[C@H]1[C@@H](OC(=O)CCC(=O)NCCCNc2c3ccccc3nc3c2[nH]c2ccccc23)O[C@@H]2O[C@@]3(C)CC[C@H]4[C@H](C)CC[C@@H]1[C@@]24OO3
MV4-11
  IC50: 286 nM
A549
  IC50: 286 nM
HCT-116 [3]
  IC50: 286 nM

## C[C@H]1[C@@H](CC(COP(=O)(O)Oc2ccccc2)C[C@H]2O[C@@H]3O[C@]4(C)CC[C@H]5[C@H](C)CC[C@@H]([C@H]2C)[C@@]35OO4)O[C@@H]2O[C@@]3(C)CC[C@H]4[C@H](C)CC[C@@H]1[C@@]24OO3 (some centres undefined)
HCT-116 [7]
  IC50: 40 nM
HeLa
  IC50: 40 nM

## COC(=O)c1ccc2c(c1)c(NCC(O)CNC(=O)CCC(=O)O[C@H]1O[C@@H]3O[C@@]4(C)CC[C@H]5[C@H](C)CC[C@@H]([C@H]1C)[C@@]35OO4)c1c3ccccc3nc-1n2C (some centres undefined)
MV4-11
  IC50: 72 nM
A549
  IC50: 72 nM
HCT-116 [3]
  IC50: 72 nM

## Cc1c2ccncc2c(C)c2c1[nH]c1ccccc12 [ELLIPTECINE]
MCF7 [4]
  IC50: 1700 nM
MCF7 [5]
  IC50: 1700 nM
[6]
  IC50: 1700 nM
HL-60
  IC50: 1700 nM
P388
  IC50: 1700 nM
KB
  IC50: 810 nM
HepG2 [8]
  IC50: 930 nM
